# A melting point compilation (Tetko et al.; mined from patent text by program, amines drawn as free bases though some values may be those of a salt)
row,Compound,melting point [°C]
1,C[Si](C)(C)C#Cc1cc2cccnc2c(-c2cccc([N+](=O)[O-])c2)n1,160 to 163
2,CN(C(C)(C)CC(=O)Oc1ccccc1C(C)(C)C)S(=O)(=O)C(F)(F)F,42 to 44
3,Cc1cccc(C(C)(C)C)c1NC(=O)NC1(c2cccs2)CCCCC1,245 to 246
4,COCCOCN1C(C)=C(C(=O)O)[C@@H](c2cccc([N+](=O)[O-])c2)C(C(=O)OC)=C1C,124
5,CC(C)(C)c1ccc(C(O)(c2ccc(C(C)(C)C)cc2)c2ncc[nH]2)cc1,215 to 216
6,O=C(CON1C(=O)c2ccccc2C1=O)OC(c1ccccc1)c1ccccc1,173 to 175
7,CC(C)CC(C(=O)O)c1cc(Cl)c(-c2ccc(Cl)cc2)c(OCC2CC2)c1 (stereo unspecified),52 to 53
8,Cc1ccccc1C(Oc1cc(OCc2ccncc2)ccc1C#N)c1nnn[nH]1 (racemic),132 to 133
9,O=C(NC1CC1)c1nc(-c2ccccc2)c(-c2ccc(=O)[nH]n2)s1,> 250
10,CNC1Oc2cc(Cl)cc(-c3ccc(Cl)cc3Cl)c2O1 (stereo unspecified),> 250
11,OCc1nnc2n1-c1ccc(Cl)cc1C(c1ccccc1Cl)=NC2,236 to 239
12,COC(=O)c1cc2ccoc2nc1C1=NC(C)(C(C)C)C(=O)N1 (stereo unspecified),134 to 137
13,O=C(NC1CCSc2cc(C(=O)O)ccc21)OCc1ccccc1 (stereo unspecified),202 to 205
14,NS(=O)(=O)c1ccc(-c2cnn(Cc3ccc(F)cc3F)c(=O)c2-c2ccc(F)cc2)cc1,236 to 238
15,OC(COc1ccc(F)cc1)CN1CCC(O)(c2ccc(Cl)cc2)CC1 (stereo unspecified),103 to 105
16,O=C(C(=C1SCS1)c1ccncc1)c1ccc(Cl)cc1,149 to 151
17,CC(C)(O)CC(=O)c1cc(C(C)(C)C)c(O)c(C(C)(C)C)c1,113 to 114
18,CN=C(NC#N)Oc1ccccc1,132 to 133
19,BrCc1ccc2nc(-c3ccccc3)oc2c1,162
20,O=c1c2cnc3ccc(Cl)cc3c2on1-c1ccccc1,174
21,CSc1c(C(=O)O)ccc(F)c1F,149 to 150

row,Compound,melting point [°C]
1,Cn1cc(C(=O)Nc2ccccc2-c2cc(F)ccc2F)c(C(F)(F)F)n1,110 to 112
2,CCn1ncc2c3onc(-c4cccc(OC)c4)c3cnc21,130 to 131
3,CCOC(=O)Cc1csc(NS(=O)(=O)c2ccccc2)n1,129 to 130
4,O=[N+]([O-])c1c(Br)nn(Cc2ccccc2)c1NCc1ccccc1,103
5,CCOC(=O)Cc1c2cc(F)ccc2n2c(-c3ccc(S(C)=O)cc3)nccc12 (stereo unspecified),133 to 135
6,Ic1ccc(OCCCCCCCN2CC2)nc1,41 to 45
7,Cc1cccc(-c2n[nH]cc2-c2ccc(F)c(-c3ccc(N4CCOCC4)nc3)c2)n1,85 to 87
8,COc1ccc(C(=O)Nc2c(Cl)cncc2Cl)c2c1[nH]c1ccccc12,> 250
9,c1ccc(C(c2ccccc2)N2CCN(CCOc3ccccc3-c3nc4ccccc4s3)CC2)cc1,67 to 72
10,COc1ccccc1NC(=O)c1sccc1S(=O)(=O)Nc1onc(C)c1Br,74 to 80
11,N#Cc1ccc2nc(C(F)(F)F)[nH]c2c1,194 to 196
12,CCOC(=O)c1cccc2oc(C=O)cc12,88 to 89
13,Cc1oc(-c2ccccc2)nc1CCOc1ccc(OC(C)(C)C(=O)O)cc1,129 to 130
14,COc1ccc(C)cc1NC(=O)Nc1ccc2c(c1)CCN(C(=O)Nc1ccc(OCCO)cc1C(F)(F)F)C2,122 to 124
15,COC1=CC2=CCC3C4CC=CC4(C)CCC3C2(C)CC1 (stereo unspecified),83 to 92
16,CN(C)CCCCNC(=O)c1cccc(-c2nnc(CSCCOc3ccccc3)o2)c1,38 to 42
17,CCN(CC)CCNC(=O)N1CCCC(S(=O)(=O)c2ccc(F)cc2)C1 (stereo unspecified),137 to 138
18,Cc1cc(-c2cc(N)n3nc(-c4ccco4)nc3c2)ccn1,100 to 101
19,O=C(O)/C=C/C=C(c1cccc([N+](=O)[O-])c1)c1cccc([N+](=O)[O-])c1,234 to 237
20,O=C1OC(CCO)c2ccccc21 (stereo unspecified),122 to 124
21,CN(c1cccc2cc(C3=NCC4(CCN(Cc5nccn5C)CC4)S3)[nH]c12)S(=O)(=O)c1cccs1,103

# Now from value to compound:
row,melting point [°C],Compound
1,298 to 300,Cc1c(C=CCO)[nH]c(=O)c2c1ccc1nc(Nc3c(Cl)cccc3Cl)n(C)c12
2,177 to 178,COc1ccc(C(=O)O)cc1OC(C)(C)C
3,> 250,CNC1Oc2cc(Cl)cc(-c3ccccc3C)c2O1 (stereo unspecified)
4,218,O=C1CNC(=O)[C@@H](CO)N1
5,136 to 140,Cc1cc(C)nc(NC(=O)NS(=O)(=O)c2csnc2Cl)n1
6,135 to 137,CNc1nc(-c2cccc(NC(=O)c3cccnc3N3CCCC3)c2)c2cc(OC)c(OC)cc2n1
7,274,COc1ccc(-c2[nH]nc3c2C(=O)c2c(NC(=O)CCl)cccc2-3)cc1
8,154 to 156,CCCc1nc2c(c(C)c(C)n3nnnc23)n1CC(C)(C)N
9,162 to 164,COc1cc(C(CC(=O)O)N2Cc3ccccc3C2=O)cc(OC)c1OC (stereo unspecified)
10,283 to 286,O=C(O)C1Cc2c(ccc3c(=O)c4ccccc4oc23)O1 (stereo unspecified)
11,61,CC(NC(=O)C(CS)C(C)c1ccc(F)c(F)c1)C(=O)O (stereo unspecified)
12,117 to 118,COCCNc1cc(Sc2ccc(Cl)cc2)nc(-c2ccc(OC)cc2)n1
13,190 to 191,COC(=O)c1ccc(=O)n(CCNC(=O)c2ccccc2)c1
14,87 to 89,Cc1cc(Oc2ccccc2C(F)(F)F)nn1C(=O)Nc1ccccc1
15,204 to 207,CC1(C)CC(=O)C2=C(C1)NC1=C(C(=O)CC(C)(C)C1)C2c1cccc(Oc2cnccn2)c1
16,148 to 149,CC(O)c1cc2c(o1)C(=O)c1cccc(O)c1C2=O (stereo unspecified)
17,230,O=C(Nc1c(Cl)cc(-c2n[nH]c(=O)o2)c2c1OCCO2)OCc1ccccc1
18,92 to 93,CCCCCCCCCCCCCCS(N)(=O)=O
19,280 to 281,O=C1COc2ccc(C3=Nc4ccccc4SC3)cc2N1
20,161,CC1(C)CC(=O)c2c(S(C)(=O)=O)sc(C(=O)N3CCCC3)c2C1

row,melting point [°C],Compound
1,112 to 114,CCOC(=O)[C@H]1C2C[C@@H](O)[C@](O)(C(=O)OCc3ccccc3)[C@@H]21 (stereo partly specified)
2,109 to 111,CN1C(=O)CC[C@]2(C)c3ccc(CCc4ccccc4)cc3CC[C@@H]12
3,114 to 117,N#CCCNC(=O)c1cccc(-c2cccc3c2CN(Cc2cccc(C(F)(F)F)c2)CC3)c1
4,> 270,CCOc1cn(C)c2nc3cc(F)c(F)cc3cc2c1=O
5,134,COc1ccc(Nc2nc(Cl)nc(Cl)n2)cc1F
6,87 to 92,CC1(C)Cc2cccc(O)c2S1
7,77 to 79,CCCc1ccc2oc(CCc3ccc(OC)cc3)c(C)c2c1O
8,191 to 192,O=C1COc2c1ccc1ccccc21
9,55 to 56,CCCCCCCCCCCCCCCCSCC(CO)NC(=O)OC (stereo unspecified)
10,240,CSc1ccc(N2C(=O)N(CC(=O)Nc3c(C(C)C)cccc3C(C)C)C(=O)C23CCOCC3)cc1
11,121,CC(C)c1ccc(N(Cc2ccc(N(C)C)cc2)C(=O)C2CCCc3ccccc32)cc1 (stereo unspecified)
12,111 to 112,CCCCc1ccc(NC(=O)OCc2ccccc2)c(=O)n1CC(=O)OC
13,66 to 68,CS(=O)(=O)Oc1ccc(S)cc1
14,137 to 146,CN(C)C(=O)C(C#N)=C(OC(=O)c1ccc(Cl)cc1[N+](=O)[O-])c1ccc(Cl)cc1[N+](=O)[O-]
15,195 to 198,CCCCNc1cc(CN)cc(S(N)(=O)=O)c1Oc1ccccc1
16,85 to 87,CC1=C(C(=O)Nc2ccccc2)OCCO1
17,80 to 81,COC(=O)CCCCCCn1[nH]c(=O)n(C)c1=O
18,111 to 113,C=CCCc1cccc2c1C(=O)C1=C(CCCC1)C2=O
19,194 to 196,C#Cc1cnn2c(C3CC3)cc(-c3ccc(Cl)c(Cl)c3)nc12
20,216 to 218,CCC1c2cccn2-c2ccc(F)cc2N1S(=O)(=O)c1cc(C)c(O)c(C)c1 (stereo unspecified)

row,melting point [°C],Compound
1,266 to 270,O=C(c1ccc2ccccc2c1)n1c2cc(O)c(O)cc2c2ccc(O)c(O)c21
2,136,CCOC(=O)c1cnc2c(-c3cccc(Cl)c3)cnn2c1
3,135 to 137,O=C(Oc1ccccc1)c1ccc(O)cc1O
4,196 to 197,FC(F)(F)c1ccc(C=CC(C=Cc2ccc(C(F)(F)F)cc2)=NNC2=NCCCN2)cc1
5,107 to 109,O=C(Nc1ccc(F)cc1F)c1nccnc1Oc1cccc(C(F)(F)F)c1
6,119 to 121,CCc1noc(C)c1-c1c(C(O)CN(C)C)c2ccccc2n1C (stereo unspecified)
7,99 to 100,CCC(O)(CC(N)=O)c1ccc(Cl)c(Cl)c1 (stereo unspecified)
8,174 to 175,Cc1nc(N2CCC(Cc3ccc(C(F)(F)F)cc3)C2=O)sc1C(=O)NCc1ccccc1 (stereo unspecified)
9,121 to 124,CC1(C)CN2C(=NS(=O)C2=Nc2ccc(Cl)cc2)S1 (stereo unspecified)
10,198 to 201,O=C(c1ccccc1)N1CCc2[nH]c3cccc(-c4cc(F)cc(F)c4)c3c2CC1
11,227,O=C(O)CNC1CCCc2ccccc21 (stereo unspecified)
12,48 to 50,CC(=S)c1ccc(-c2ccccc2)cc1
13,146 to 148,CCOc1ccc(Cc2cn(C3OC(COC(C)=O)C(OC(C)=O)C(OC(C)=O)C3OC(C)=O)c3cccc(F)c23)cc1 (stereo unspecified)
14,213 to 215,O=S1CCN(c2nc(N3CCNCC3)cc3c(F)cccc23)CC1
15,121 to 150,Cc1nc(CN(C)C)n(-c2ccc(Cl)cc2C(=O)c2ccccc2Cl)c1CN1C(=O)c2ccccc2C1=O
16,43 to 46,CC(C)(C)C(=O)OC1CC(C)(C)N(OC(=O)C(C)(C)C)C(C)(C)C1
17,156 to 159,O=C(O)Cn1cc(Cc2nc3c(F)c(F)cc(F)c3s2)c2cc(-c3ccccc3)ccc21
18,65 to 67,CCCc1c(C(=O)N(CC)CC)ccc(OC)c1OC
19,111,COc1cc(OC)c([N+](=O)[O-])c(OC)c1N
